Experimental data taken from patent US20050101678A1, “Antibacterial composition” (priority 2000, published 2005).

Key:
Type in all cases: cell-based
[1] = test system: Ax 26 Corynebacterium sp.; assay: MIC microtiter plate test, axilla strain Ax 26; conditions: for Bacteriostatic activity Corynebact. Ax 26: Table 7, concentration for at least 80% reduction in growth during 24 hours; for Minimal inhibitory concentration (MIC) Ax 26: Table 1, growth inhibited by at least 80%, 24 h at 36° C.
From the text: (§1) The different bacterial strains had been isolated from the human axilla by current microbiological practice. They were taxonomically identified by cell morphology, gram-reaction, and biochemical tests included in the Api coryne test kit (BioMerieux, France). Strain Staphylococcus epidermidis Ax25 was identified by fatty acid methyl ester analysis (FAME; German type strain collection DSMZ, Germany). The strains were maintained on Tryptic soy […] plates, this standard medium being amended with 5 g per Liter of Tween 80 and 1 g of Soybean lecithin. Plates were incubated at 36° C. for a period 48 hours. The bacteria were then swabbed from the plates and suspended in 4 ml of Müller-Hinton broth amended with 100 mg of Tween 80 per Liter (MH-Tween) and incubated again at 36° C. for 16 hours. Following incubation the bacterial suspensions were diluted in MH-Tween to obtain a final cell density of 10^6 colony forming units per ml. For each fragrance material four microtiter plates were used in the example, each microtiter plate having 8 rows, A-H, and 12 columns, 1-12.
(§2) To each column a diluted suspension of a different test organism was distributed, 100 μl per well. 1% stock solutions of the fragrance materials were then prepared in MH-Tween broth. The fragrance material was dispersed by ultrasonication into the aqueous medium to obtain a homogenous emulsion. 100 μl per well of this emulsion was then added to the first row of the microtiter plates already containing the target organisms. Serial dilution series were then prepared starting at row A and continuing until row G, each time removing 100 μl from a well and transferring it to the next well. In this way fragrance concentrations of 0.5%, 0.25%, 0.125%, 0.0625%, 0.03125%, 0.0156%, and 0.0078% were tested for their antibacterial efficacy. The reference compound Triclosan was tested at 16-fold lower concentrations. The plates were covered with plastic films and incubated for 24 h at 36° C. with shaking at 250 rpm. The turbidity developing in the microtiter plates was then examined after 24 h to determine microbial growth. The minimal concentration of fragrance inhibiting the growth of an organism by at least 80% was determined as the minimal inhibitory concentration (MIC).
(§3) Ax 25 was identified as Staphylococcus. epidermidis by FAME analysis. Identification with the Api Coryne test kit yielded the following species assignments for the remainder of the strains: Ax 26 Corynebacterium sp.; Ax 3 Corynebacterium bovis; Ax 7 Corynebacterium group G; Ax 10 Corynebacterium jeikeium; Ax 11 Corynebacterium jeikeium; Ax 12 Corynebacterium jeikeium; Ax 15 Corynebacterium jeikeium; Ax 20 Corynebacterium striatum/amycolatum; and Ax 19 Corynebacterium jeikeium. The strains were isolated from the axilla of 8 human volunteers. Based on biochemical tests and colony morphology all strains were distinct from each other, even the several strains all belonging to Corynebacterium jeikeium.

Corynebacteria = assay: Activity against Corynebacteria; conditions: statement in words
From the text: With 2-methoxy-4-(5,5,6-trimethylbicyclo[2.2.1]hept-2-yl)cyclohexan-1-ol an outstanding activity is achieved.
as §1
To each column a diluted suspension of a different test organism was distributed, 100 μl per well. 1% stock solutions of the fragrance materials were then prepared in MH-Tween broth. […]

[2] = test system: Staphylococcus epidermidis Ax25; assay: MIC microtiter plate test, axilla strain Ax 25; conditions: for Minimal inhibitory concentration (MIC) Ax 25: Table 1, growth inhibited by at least 80%, 24 h at 36° C.
From the text: as §1, §2, §3

[3] = test system: Ax 3 Corynebacterium bovis; assay: MIC microtiter plate test, axilla strain Ax 3; conditions: Table 1; growth inhibited by at least 80%, 24 h at 36° C.
From the text: as §1
as §2, with “The minimal concentration of fragrance inhibiting the growth of an organism by at least 80% was determined as the minimal inhibitory concentration (MIC).” left out

[4] = test system: Ax 7 Corynebacterium group G; assay: MIC microtiter plate test, axilla strain Ax 7; conditions: for Minimal inhibitory concentration (MIC) Ax 7: Table 1, growth inhibited by at least 80%, 24 h at 36° C.
From the text: as §1, §2, §3

[5] = test system: Ax 10 Corynebacterium jeikeium; assay: MIC microtiter plate test, axilla strain Ax 10; conditions: Table 1; growth inhibited by at least 80%, 24 h at 36° C.
From the text: as §1
as §2, with “The minimal concentration of fragrance inhibiting the growth of an organism by at least 80% was determined as the minimal inhibitory concentration (MIC).” left out

[6] = test system: Ax 11 Corynebacterium jeikeium; assay: MIC microtiter plate test, axilla strain Ax 11; conditions: Table 1; growth inhibited by at least 80%, 24 h at 36° C.
From the text: as §1
as §2, with “The minimal concentration of fragrance inhibiting the growth of an organism by at least 80% was determined as the minimal inhibitory concentration (MIC).” left out

[7] = test system: Ax 12 Corynebacterium jeikeium; assay: MIC microtiter plate test, axilla strain Ax 12; conditions: Table 1; growth inhibited by at least 80%, 24 h at 36° C.
From the text: as §1
as §2, with “The minimal concentration of fragrance inhibiting the growth of an organism by at least 80% was determined as the minimal inhibitory concentration (MIC).” left out

[8] = test system: Ax 15 Corynebacterium jeikeium; assay: MIC microtiter plate test, axilla strain Ax 15; conditions: for Minimal inhibitory concentration (MIC) Ax 15: Table 1, growth inhibited by at least 80%, 24 h at 36° C.
From the text: as §1, §2, §3

[9] = test system: Ax 20 Corynebacterium striatum/amycolatum; assay: MIC microtiter plate test, axilla strain Ax 20; conditions: Table 1; growth inhibited by at least 80%, 24 h at 36° C.
From the text: as §1
as §2, with “The minimal concentration of fragrance inhibiting the growth of an organism by at least 80% was determined as the minimal inhibitory concentration (MIC).” left out

[10] = test system: Ax 19 Corynebacterium jeikeium; assay: MIC microtiter plate test, axilla strain Ax 19; conditions: Table 1; growth inhibited by at least 80%, 24 h at 36° C.
From the text: as §1
To each column a diluted suspension of a different test organism was distributed, 100 μl per well. 1% stock solutions of the fragrance materials were then prepared in MH-Tween broth. The fragrance material was dispersed by ultrasonication into the aqueous medium to obtain a homogenous emulsion. […]

[11] = Table 7, concentration for at least 80% reduction in growth during 24 hours

| Compound | Bacteriostatic activity Corynebact. Ax 26 [1] | Minimal inhibitory concentration (MIC) Ax 25 [2] [% weight/volume] | Minimal inhibitory concentration (MIC) Ax 26 [1] [% weight/volume] | Minimal inhibitory concentration (MIC) Ax 3 [3] [% weight/volume] | Minimal inhibitory concentration (MIC) Ax 7 [4] [% weight/volume] | Minimal inhibitory concentration (MIC) Ax 10 [5] [% weight/volume] | Minimal inhibitory concentration (MIC) Ax 11 [6] [% weight/volume] | Minimal inhibitory concentration (MIC) Ax 12 [7] [% weight/volume] | Minimal inhibitory concentration (MIC) Ax 15 [8] | Minimal inhibitory concentration (MIC) Ax 20 [9] [% weight/volume] | also measured |
| --- | --- | --- | --- | --- | --- | --- | --- | --- | --- | --- | --- |
| COC1CC(C2CC3CC2C(C)C3(C)C)CCC1O (single isomer, unassigned) [Peak B] | 0.0016 percent (w/v) |  |  |  |  |  |  |  |  |  |  |
| COC1CC(C2CC3CC2C(C)C3(C)C)CCC1O (centres unmarked) [2-methoxy-4-(5,5,6-trimethylbicyclo[2.2.1]hept-2-yl)cyclohexan-1-ol] |  |  |  |  |  |  |  |  |  |  | activity against Corynebacteria (Corynebacteria): highest activity |
| COC1CCC(C2CC3CC2C(C)C3(C)C)CC1O (centres unmarked) [2-methoxy-5-(5,5,6-trimethyl-bicyclo[2.2.1]hept-2-yl)cyclohexan-1-ol] |  |  |  |  |  |  |  |  |  |  | activity against Corynebacteria (Corynebacteria): highest activity |
| CC1=CCC(/C=C\C(C)C(C)O)C1(C)C (centres unmarked) [Ebanol] |  | 0.1250 | 0.1250 | 0.1250 | 0.1250 | 0.2500 | 0.2500 | 0.2500 | 0.2500 % weight/volume | 0.1250 |  |
| CC(C)=CCCC(C)=CCCC(C)=CCO [Farnesol, 3,7,11-trimethyl-2,6,10-dodecatrien-1-ol] | 0.0078 percent (w/v) |  | 0.0078 |  |  |  |  |  |  |  |  |
| CCC(=CCC1CC=C(C)C1(C)C)CO (centres unmarked) [Radjanol] |  | 0.1250 | 0.0625 |  | 0.0625 |  |  |  | 0.125. % weight/volume |  |  |
| CC1=CCC(CCC(C)C(C)O)C1(C)C (centres unmarked) [Sandalore] |  | 0.1250 | 0.1250 | 0.1250 | 0.1250 | 0.1250 | 0.1250 | 0.1250 | 0.2500 % weight/volume | 0.1250 |  |
| Oc1cc(Cl)ccc1Oc1ccc(Cl)cc1Cl [Triclosan, 2,4,4′-trichloro-2′-hydroxy-diphenyl-ether] | 0.0025 percent (w/v) | 0.000015 | 0.0015 | 0.0029 | 0.0029 | 0.0020 | 0.0029 | 0.0017 | 0.0029 % weight/volume | 0.0107 | Bacteriostatic activity S. epidermidis [2, 11]: 0.000015 percent (w/v); Bacteriostatic activity Corynebact. Ax 7 [4, 11]: 0.0025 percent (w/v); Bacteriostatic activity Corynebact. Ax 15 [8, 11]: 0.0030 percent (w/v); Minimal inhibitory concentration (MIC) Ax 19 [10]: 0.0039 % weight/volume |
